Data published in patent publication US6693103B2 (Wyeth, priority 1999, dated 2004).

Legend:
[1] = system: rat uterine decidualization; experiment: Rat decidualization assay; type: in vivo; conditions: ovariectomized female Sprague-Dawley rats, s.c.; average of dose-response curves
Protocol: The animals are treated once daily for seven days.
Uteri are removed and trimmed of fat.
Decidual response: [(D−C)/C]×100%

Structure (SMILES) | average EC50 for uterine weight (decidual response) [1] [mg/kg] | melting point [°C]
C#C[C@]1(O)CC[C@H]2[C@@H]3CCC4=CC(=O)CC[C@@H]4[C@H]3C(=C)C[C@@]21CC [3-Ketodesogestrel] | 0.10 | 
CC1(C)CC(=O)Nc2ccc(-c3cccc(C#N)c3)cc21 [Example 42, 3-(4,4-Dimethyl-2-oxo-1,2,3,4-tetrahydroquinolin-6-yl)benzonitrile] |  | 190 to 192
C#C[C@]1(O)CC[C@H]2[C@@H]3CCC4=CC(=O)CC[C@@H]4[C@H]3CC[C@@]21CC [Levonorgestrel] | 0.10 | 
